Article PMC6039096 (Science translational medicine, 2017)

Columns and labels:
[1] = biological target: EZH2 (Homo sapiens, UniProt Q15910); assay: biochemical inhibition assay with recombinant EZH2
[2] = biological target: T1, EZH1 (Homo sapiens, UniProt Q92800); assay: biochemical inhibition assay with recombinant EZH1
T1 sequence (Q92800 1-747): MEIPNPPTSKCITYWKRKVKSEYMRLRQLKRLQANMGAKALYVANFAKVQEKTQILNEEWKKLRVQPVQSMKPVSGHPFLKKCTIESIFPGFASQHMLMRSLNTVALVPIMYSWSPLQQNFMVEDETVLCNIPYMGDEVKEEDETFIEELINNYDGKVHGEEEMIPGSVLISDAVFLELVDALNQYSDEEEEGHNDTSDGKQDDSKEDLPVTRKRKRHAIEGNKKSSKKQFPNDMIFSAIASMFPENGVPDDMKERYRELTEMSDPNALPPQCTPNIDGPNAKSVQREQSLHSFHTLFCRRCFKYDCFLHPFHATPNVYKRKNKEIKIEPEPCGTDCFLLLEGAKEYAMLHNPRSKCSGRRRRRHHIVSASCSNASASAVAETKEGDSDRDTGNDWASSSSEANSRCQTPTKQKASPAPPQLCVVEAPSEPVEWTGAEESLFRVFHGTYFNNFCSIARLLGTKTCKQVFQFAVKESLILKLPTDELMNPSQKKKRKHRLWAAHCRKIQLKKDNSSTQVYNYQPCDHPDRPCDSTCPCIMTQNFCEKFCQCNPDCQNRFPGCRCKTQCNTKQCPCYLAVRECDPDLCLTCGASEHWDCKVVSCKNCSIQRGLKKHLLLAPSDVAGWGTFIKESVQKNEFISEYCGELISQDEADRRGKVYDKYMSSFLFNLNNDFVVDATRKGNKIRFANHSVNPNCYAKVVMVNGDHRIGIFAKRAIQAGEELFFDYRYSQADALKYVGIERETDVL

Sequence of EZH2 (Q15910 whole entry): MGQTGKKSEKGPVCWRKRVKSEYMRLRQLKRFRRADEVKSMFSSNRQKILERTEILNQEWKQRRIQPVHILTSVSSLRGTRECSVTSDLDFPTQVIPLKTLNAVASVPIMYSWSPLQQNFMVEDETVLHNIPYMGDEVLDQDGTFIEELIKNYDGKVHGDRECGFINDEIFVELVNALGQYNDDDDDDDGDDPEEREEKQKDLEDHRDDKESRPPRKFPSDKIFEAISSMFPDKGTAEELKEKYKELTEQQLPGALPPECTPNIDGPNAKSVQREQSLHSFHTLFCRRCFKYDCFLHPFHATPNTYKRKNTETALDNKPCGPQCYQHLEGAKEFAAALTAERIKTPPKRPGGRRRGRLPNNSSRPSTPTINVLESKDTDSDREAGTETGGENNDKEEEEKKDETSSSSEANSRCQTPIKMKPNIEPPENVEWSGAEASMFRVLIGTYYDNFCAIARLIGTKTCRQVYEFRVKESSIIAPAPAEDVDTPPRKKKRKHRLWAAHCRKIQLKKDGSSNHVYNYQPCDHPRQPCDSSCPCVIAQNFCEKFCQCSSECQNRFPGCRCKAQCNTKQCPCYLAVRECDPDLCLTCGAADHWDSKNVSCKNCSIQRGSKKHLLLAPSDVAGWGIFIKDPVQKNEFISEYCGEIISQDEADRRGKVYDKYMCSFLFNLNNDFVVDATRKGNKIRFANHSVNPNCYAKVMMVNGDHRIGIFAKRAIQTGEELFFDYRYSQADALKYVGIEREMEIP

CCCc1cc(C)[nH]c(=O)c1CNC(=O)c1cc(-c2ccc(N3CCN(C)CC3)nc2)nc2c1cnn2C(C)C [JQ-EZ-05] gave a Ki [1] of 0.0022 µM and a Ki [2] of 0.0265 µM.
